Measurements published in ChEMBL document CHEMBL1158667, “Agelasines H and I, 9-methyladenine-containing diterpenoids from an Agelas sponge” (J Nat Prod, 1998).
Active and inactive are the calls of the source. The calls are words filed in the database; no cut-off is given here.

Columns and labels:
Format in all cases: functional, organism-based
[1] = test system: Aspergillus niger; experiment: Antimicrobial activity against Aspergillus niger ATCC 9642 at 1 ug/mL
[2] = test system: Saccharomyces cerevisiae; experiment: Antimicrobial activity against Saccharomyces cerevisiae ATCC 18824 at 200 ug/mL
[3] = test system: Saccharomyces cerevisiae; experiment: Antimicrobial activity against Saccharomyces cerevisiae ATCC 18824 at 100 ug/mL
[4] = test system: Saccharomyces cerevisiae; experiment: Antimicrobial activity against Saccharomyces cerevisiae ATCC 18824 at 10 ug/mL
[5] = test system: Saccharomyces cerevisiae; experiment: Antimicrobial activity against Saccharomyces cerevisiae ATCC 18824 at 1 ug/mL
[6] = test system: Aspergillus niger; experiment: Antimicrobial activity against Aspergillus niger ATCC 9642 at 10 ug/mL
[7] = test system: Pseudomonas aeruginosa; experiment: Antimicrobial activity against Pseudomonas aeruginosa ATCC 15442 at 200 ug/mL
[8] = test system: Pseudomonas aeruginosa; experiment: Antimicrobial activity against Pseudomonas aeruginosa ATCC 15442 at 100 ug/mL
[9] = test system: Pseudomonas aeruginosa; experiment: Antimicrobial activity against Pseudomonas aeruginosa ATCC 15442 at 10 ug/mL
[10] = test system: Pseudomonas aeruginosa; experiment: Antimicrobial activity against Pseudomonas aeruginosa ATCC 15442 at 1 ug/mL
[11] = test system: Staphylococcus aureus; experiment: Antimicrobial activity against Staphylococcus aureus ATCC 6538 at 200 ug/mL
[12] = test system: Staphylococcus aureus; experiment: Antimicrobial activity against Staphylococcus aureus ATCC 6538 at 100 ug/mL
[13] = test system: Staphylococcus aureus; experiment: Antimicrobial activity against Staphylococcus aureus ATCC 6538 at 10 ug/mL
[14] = test system: Staphylococcus aureus; experiment: Antimicrobial activity against Staphylococcus aureus ATCC 6538 at 1 ug/mL
[15] = test system: Aspergillus niger; experiment: Antimicrobial activity against Aspergillus niger ATCC 9642 at 200 ug/mL
[16] = test system: Aspergillus niger; experiment: Antimicrobial activity against Aspergillus niger ATCC 9642 at 100 ug/mL

Row | SMILES | Activity [1] | Activity [2] | Activity [3] | Activity [4] | Activity [5] | Activity [6] | Activity [7] | Activity [8] | Activity [9] | Activity [10] | Activity [11] | Activity [12] | Activity [13] | Activity [14] | Activity [15] | Activity [16]
1 | CC1=CCC[C@H]2[C@](C)(CC/C(C)=C/Cn3c[n+](C)c4ncnc(N)c43)[C@@H](C)CC[C@@]12C | inactive | inactive | inactive | inactive | inactive | inactive | inactive | inactive | inactive | inactive | inactive | inactive | inactive | inactive | inactive | inactive
2 | C=C1[C@H](O)CC[C@H]2[C@](C)(CC/C(C)=C/Cn3c[n+](C)c4ncnc(N)c43)[C@@H](C)CC[C@@]12C | – | Active | – | – | – | – | – | – | – | – | – | – | – | – | – | –
3 | CC1=CCC[C@@H]2[C@@](C)(CC/C(C)=C/Cn3c[n+](C)c4ncnc(N)c43)[C@H](C)CC[C@@]12C | – | inactive | – | Active | – | – | inactive | – | – | – | inactive | – | – | – | inactive | –
4 | CC1=CCC[C@H](C)[C@@]1(C)CC/C(C)=C/CC/C(C)=C/Cn1c[n+](C)c2ncnc(N)c21 | – | – | – | Active | – | – | – | – | – | – | – | – | – | – | – | Active
5 | C/C(=C\Cn1c[n+](C)c2ncnc(N)c21)CC[C@]1(C)[C@@H](C)CC[C@@]2(C)C(CO)=CCC[C@@H]12 | inactive | inactive | inactive | inactive | inactive | inactive | inactive | inactive | inactive | inactive | inactive | inactive | inactive | inactive | inactive | inactive
6 | C/C(=C\Cn1c[n+](C)c2ncnc(N)c21)CC[C@]1(C)[C@@H](C)CC[C@@]2(C)C(COC(=O)c3ccc[nH]3)=CCC[C@@H]12 | – | inactive | – | Active | – | – | inactive | – | – | – | inactive | – | – | – | inactive | –
